Experimental data taken from patent US20120264786A1, “USE OF THIAZOLIDINEDIONES FOR THE PARTIAL INHIBITION OF ANDROGEN BINDING TO AROMATASE” (priority 2008, published 2012).

What was measured:
aromatase enzyme [1] = target: T1, aromatase enzyme (Homo sapiens, UniProt P11511); assay: 125I-androstenedione binding to immunoprecipitated aromatase enzyme; details: for inhibition at 25 µM: 1 μM androstenedione, vs control
T1 construct: The aromatase enzyme was immunoprecipitated as described above; endogenous in cells; host or cells: primary granulosa cells (human), lysate immunoprecipitated with anti-human aromatase antibody and Protein A-agarose
T1 sequence (P11511 1-503): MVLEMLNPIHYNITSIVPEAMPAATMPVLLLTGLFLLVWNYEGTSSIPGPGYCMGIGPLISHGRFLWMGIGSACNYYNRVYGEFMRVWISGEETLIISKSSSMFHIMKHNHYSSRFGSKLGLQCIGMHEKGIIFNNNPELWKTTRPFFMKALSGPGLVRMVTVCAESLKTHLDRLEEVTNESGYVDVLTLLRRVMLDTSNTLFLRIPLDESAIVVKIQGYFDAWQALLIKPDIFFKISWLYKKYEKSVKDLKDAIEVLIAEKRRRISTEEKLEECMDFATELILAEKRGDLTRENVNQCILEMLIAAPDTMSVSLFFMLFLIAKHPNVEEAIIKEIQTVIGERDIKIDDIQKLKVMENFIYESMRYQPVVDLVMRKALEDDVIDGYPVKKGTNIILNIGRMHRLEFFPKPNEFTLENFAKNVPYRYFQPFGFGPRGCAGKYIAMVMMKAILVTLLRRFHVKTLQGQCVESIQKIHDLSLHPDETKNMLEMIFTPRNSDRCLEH
Description: (§1) Rabbit polyclonal anti-human aromatase antibodies (1.4 μg) (Abcam, Inc. Cambridge, Mass.) were added to 1 ml of cell lysate. The lysate buffer contained 20 mM Tris-HCl (pH 7.4), 150 mM NaCl, 1 mM CaCl2, 1 mM MgCl2, 1 mM Na orthovanadate, 1% NP40, 1 mM AEBSF (4-2-aminoethyl-benzenesulfonyfluoride, hydrochloride), 0.8 μM aprotinin, 50 μM bestain, 15 μM E-64, 20 μM leupeptin, 10 μM pepstatin A, 1 mM phenylmethylsulfonyl fluoride and 10 μg/ml trypsin inhibitor. The lysate was centrifuged at 6,000 rpm for 3 min and the supernatant was transferred into another micro-centrifuge tube. […] Metab. 92: 2232-2239, 2007, which is incorporated herein by reference. The mixture was incubated for 3-4 h at 4° C. After Protein A-agarose was added, the mixture was incubated again overnight at 4° C. The immunoprecipitate complexes were collected by centrifugation and washed. The samples were then resuspended in 2× Laemmli buffer (BioRad, Hercules, Calif.) supplemented with 1 mM DTT (Cleland's reagent, 1, 4-dithiothreitol, threo-1, 4-dimercapto-2, 3-butanediol, Roche Inc, Indianapolis, Ind.). […] The bands were detected by chemiluminescence (Pierce, Rockford, Ill.). For the analysis of the expression of aromatase, NIH Scion Imaging program was used to evaluate integrated band intensity.
(§2) The aromatase enzyme was immunoprecipitated as described above. Purified aromatase bound to Protein A-agarose was added to 250 μl of solution containing the final concentration of 1 μM testosterone (2 μCi of [125I]/m1 testosterone with the specific radioactivity of 857 μCi/nmol) or androstenedione (3.5 μCi of [125I]/ml androstenedione with the specific radioactivity of 430 μCi/nmol), with insulin (0, 10, 10^2, 10^3 ng/ml) and with or without 25 μM rosiglitazone or pioglitazone. The mixture was incubated at room temperature for 30 min and then centrifuged at 6000 rpm for 3 min. The pellets were washed two times with 400 μl Dulbecco's phosphate saline. The bound testosterone or androstenedione, expressed as % of total testosterone or androstenedione, was measured in Wizard gamma counter.

aromatase enzyme [2] = target: T1, aromatase enzyme; assay: 125I-testosterone binding to immunoprecipitated aromatase enzyme; details: for inhibition at 25 µM: 1 μM testosterone, vs control
Description: as §1, §2

aromatase mRNA = assay: RT-PCR analysis of aromatase mRNA expression in granulosa cells; assay type: cell-based, human; details: androstenedione or testosterone as substrate
Human granulosa cells [3] = assay: Estradiol production by cultured human granulosa cells with testosterone as substrate (ELISA/RIA); assay type: cell-based; details: 3 μM testosterone; for reduction of the inhibitory effect on insulin-induced estradiol production: in the presence of aromatase inhibitor I and insulin, FIG. 2A vs FIG. 2C
Description: (§3) Human granulosa cells were obtained during in vitro fertilization over the course of 18 months and were pooled from several patients at a time to ensure adequate cell number for the experiments. The diagnoses included male factor, tubal factor and uterine factor infertility, endometriosis and anovulation. […] La Jolla, Calif.). Estrone and estradiol concentrations in the tissue culture medium were measured using enzyme-linked immuno-sorbent assay (ELISA) (Alpco Diagnostics, Salem, N.H.) or radioimmunoassay (RIA) (Diagnostic Systems Laboratories, Webster, Tex.). […] The statistical interactions between the sets of data obtained with or without rosiglitazone or pioglitazone and with or without aromatase inhibitor I were examined. Pairwise Bonferroni-adjusted contrasts were used to determine statistical significance. […] Adjustments were made for initial inhibition of estradiol or estrone production induced by rosiglitazone or pioglitazone in the absence of insulin, with or without aromatase inhibitor I.

[4] = test system: aromatase enzyme (protein) expression; assay: Aromatase enzyme expression by immunoprecipitation and immunoblotting in granulosa cells; assay type: cell-based, human; details: androstenedione or testosterone as substrate; for effect on aromatase enzyme expression: 25 μM, absence or presence of insulin, vs control
Description: as §1, with “La Jolla, Calif.). […]” for “Rabbit polyclonal anti-human aromatase antibodies (1.4 μg) (Abcam, Inc.”, “The lysate buffer contained 20 mM Tris-HCl (pH 7.4), 150 mM NaCl, 1 mM CaCl2, 1 mM MgCl2, 1 mM Na orthovanadate, 1% NP40, 1 mM AEBSF (4-2-aminoethyl-benzenesulfonyfluoride, hydrochloride), 0.8 μM aprotinin, 50 μM bestain, 15 μM E-64, 20 μM leupeptin, 10 μM pepstatin A, 1 mM phenylmethylsulfonyl fluoride and 10 μg/ml trypsin inhibitor.” left out

Human granulosa cells [5] = assay: Estrone production by cultured human granulosa cells with androstenedione as substrate (ELISA/RIA); assay type: cell-based; details: 3 μM androstenedione
Description: as §3

[6] = insulin, absence of aromatase inhibitor I, vs baseline
[7] = in the presence of aromatase inhibitor I
[8] = 25 μM, absence or presence of insulin, vs control
[9] = 25 μM TZD, presence of insulin, absence of aromatase inhibitor I, vs control without TZD

Molecule	effect on the binding of androstenedione to aromatase (aromatase enzyme [1]; insulin alone)	effect on the binding of testosterone to aromatase (aromatase enzyme [2]; insulin alone)	effect on aromatase mRNA (aromatase mRNA; insulin alone)	stimulation of estradiol production (Human granulosa cells [3]; [6]) [%]	effect on aromatase enzyme (protein) expression ([4]; insulin alone)	stimulation of estrone production (Human granulosa cells [5]; [6]) [%]	inhibition of estradiol production (Human granulosa cells [3]; [7]) [%]	insulin-induced stimulation of estradiol production (Human granulosa cells [3]; [7])	inhibition of estrone production (Human granulosa cells [5]; aromatase inhibitor 100 to 200 nM) [%]	inhibition at 25 µM (aromatase enzyme [1]) [%]	inhibition at 25 µM (aromatase enzyme [2]) [%]	effect on aromatase mRNA (aromatase mRNA; [8])	inhibition of estradiol production (Human granulosa cells [3]; [9]) [%]	reduction of the inhibitory effect on insulin-induced estradiol production (Human granulosa cells [3]) [%]	effect on aromatase enzyme expression [4]	inhibition of estrone production (Human granulosa cells [5]; [9]) [%]
insulin: insulin added to granulosa cell culture (0-10^4 ng/ml)	no effect	no effect	no effect	124	did not affect	114	–	–	–	–	–	–	–	–	–	–
4-(imidazolylmethyl)-1-nitro-9H-9-xanthenone [aromatase inhibitor I]	–	–	–	–	–	–	72	completely abolished	55	–	–	–	–	–	–	–
CCc1ccc(CCOc2ccc(CC3SC(=O)NC3=O)cc2)nc1 (centres unmarked) [pioglitazone]	–	–	–	–	–	–	–	–	–	20	32	no significant effect	34	62	no significant effect	22
CN(CCOc1ccc(CC2SC(=O)NC2=O)cc1)c1ccccn1 (centres unmarked) [rosiglitazone]	–	–	–	–	–	–	–	–	–	20	38	no significant effect	34	62	no significant effect	22
